Laboratory results: US7050620B2, “Method of assaying shape and structural features in cells” (priority 2001, dated 2006)
Entries after “also recorded” stand apart in the source; their conditions may differ.

Columns and labels:
IAR20 PC1 cells [1] = assay: Factor-based classification of cell shape phenotype from interference contours (predicted time in culture); parameters: species or system rat; conditions: for shift of signature-type (mean predicted time) versus control, in words / mean predicted time (signature-type, factor-based classification): 2 hr exposure; for shift of signature-type (mean predicted time) versus control, in words: taxanes 6–18 μM, baccatin III 9 μM, colchicine 2 μM; for factors used in classification whose values changed significantly: 2 h exposure; for mean predicted time (signature-type, factor-based classification): FIG. 1 experiment, 2 μM colchicine, 18 μM paclitaxel, 10 μM valinomycin, 0.5 μM gramicidin D, 200 μM quinidine, control 283 days; for factor #4 value (filopodia / sharp projections at cell edge) / factor #7 value (knob-like structures at the cell edge) / factor #8 value (sharp features in the second contour): versus control; for factor #12 value (slope at which cell rises from substratum, rounding-up): versus control / direction relative to signature-type; for factor #8 value (sharp features in the second contour): monensin 24 μM
Procedure: (§1) Cell lines and interference preparations. Equations were developed to define changes in the signature-type for two epithelial cell lines that underwent transformation over a prolonged time of in vivo culture. […] IAR20 PC1 was a clonal derivative of a line called IAR20, which was cultured from liver cells of a BD-VI rat. […] Liver cells were grown in William's E medium supplemented with 10% fetal bovine serum, whereas the tracheal cells were grown in Waymouth's medium containing fetal bovine serum plus 0.1 μg/ml insulin and 0.1 μg /ml hydrocortisone. The cells were maintained and subcultured as described elsewhere (1,3). For experiments with insulin supplementation, insulin concentrations were raised to 1 and 10 μg/ml and maintained for two passages before the cells were used.
(§2) Information about shape features was derived from interference images. These were generated by culturing cells on anodized tantalum substrates, and then imaging them in reflected light. Cells were plated on substrates in replicate dishes, left overnight, and then exposed to experimental agents or to the solvent vehicle alone. After incubation with the agents for 2–5 h, samples were recovered, fixed in buffered 3% glutaraldehyde (pH 7.3), and air-dried. Randomly selected cells were imaged in a Zeiss Universal microscope, and the outlines of their three lowermost interference contours were digitized. […] Each experimental treatment was represented by a total of 50 cells.
(§3) Classification procedures. The classification methods employed a subset of the contour shape variables. Each 50-cell sample was submitted to multiple linear regression analysis for classification alongside a group of cells representing normal and transformed reference samples. The latter were obtained from the lines that underwent transformation as described above. Because the signature-type value was assigned relative to these samples, the solutions were in units of predicted time in culture. After obtaining such a value for each cell in an experiment, the differences in mean predicted times for treated and control cells were calculated. The sum of the squared standard deviations, divided by the number of observations, n, was used to compute the confidence limits of the mean: (s1)^2/n+(s2)^2/n Where s was the standard deviation for each sample. Dividing the difference between the means by the square root of the above expression yields a value that can be related to the degree of confidence, 1-α. […] This value was equivalent to a probability that the two samples differed of P≦0.02.
(§4) Again, classification of samples from experiments employed multiple linear regression methods, based on factors scores rather than on contour shape variables. Factors were generated by combining into a single database, the contour shape variables from highly malignant epithelial cells and precancerous lines that change progressively, eventually become neoplastic. […] Principal components were extracted and transformed by a pattern of rotation to produce latent factors, which described variances that had thereby been rendered orthogonal (8). Factor scores for each cell represented in the database to be estimated. These factor scores from known IAR20 PC1 or 1000 W cells are used as a reference to classify data from short-term experiments on the respective samples. The factors used in classification were selected by the SAS REG procedure (8). […] Predicted time-in-culture values were obtained by submitting the experimental cells to analysis, as described above for simple variables. The statistical significance of differences among sample means within each experiment was determined by the Duncan multiple range test.

1000 W cells = assay: as above; parameters: species or system rat; conditions: for predicted time (factor-based classification): time zero 612 days; for number of the eight contour shape variables highly correlated with factor #4 that changed significantly: 1000 W cells, FIG. 7—Table 3; for change of signature-type versus control, in words: paclitaxel 2-h or 5 h exposure, insulin 0.1–10 μg/ml
Procedure: as §1, with “Equations were developed to define changes in the signature-type for two epithelial cell lines that underwent transformation over a prolonged time of in vivo culture.” left out
as §2, with “After incubation with the agents for 2–5 h, samples were recovered, fixed in buffered 3% glutaraldehyde (pH 7.3), and air-dried.” left out
as §3, §4

IAR20 PC1 cells [2] = assay: Indirect immunofluorescence localization of beta-tubulin (microtubule organization); type: cell-based, rat; conditions: for MT organization / arrangement, in words: exposure 2–5 h; for cells with MT bundles on both sides of the nucleus: taxane alone or IC with 2 μM colchicine
Procedure: Immunofluorescene localization of β-tubulin. IAR20 PC1 cells were subcultured onto sterile glass cover slips as described above. Replicate samples were exposed to test agents for 2–5 h alongside controls, and then fixed and left in methanol at −70° C. until used for the immunofluorescence procedure. To visualize arrays of MTs, cells were exposed to a mouse monoclonal anti-β tubulin antibody (Nycomed Amersham, Little Chalfont, Buckinghamshire, UK), made up at a 1:300 dilution. We used a 1:100 dilution of P3×63 monoclonal antibody from P3 myeloma (generous gift from J. Lessard) as a non-specific control. The secondary antibody, […] goat anti-mouse immunoglobulin G (US Biochemical Corp., Cleveland), was used at a dilution of 1:2000. Cover slips were processed and then mounted on a slide in a solution of 1,4-diazobicyclo[2.2.2]octane (Sigma) made up to 25 mg/ml in glycerol. The samples were photographed on a Zeiss Axiophot microscope equipped with a 63x Planapo lens. Images were recorded on Kodak Tri-X or T-Max film. All of the drugs, including paclitaxel, cephalomannine, colchicine, and baccatin III, were studied to see if they affected the arrangement of MTs. […] MT arrangement was unaltered after treatment with the above-mentioned ionophores and transport inhibitors.

IAR20 PC1 cells [3] = assay: Uptake of fluid-phase marker horseradish peroxidase; type: cell-based, rat; conditions: monensin treatment

CC(=O)O[C@H]1C(=O)[C@]2(C)CC[C@H]3OC[C@@]3(OC(C)=O)[C@H]2[C@H](OC(=O)c2ccccc2)[C@]2(O)C[C@H](OC(=O)[C@H](O)[C@@H](NC(=O)c3ccccc3)c3ccccc3)C(C)=C1C2(C)C [7-deoxytaxol]
shift of signature-type (mean predicted time) versus control, in words (IAR20 PC1 cells [1]): failed to shift

CCCCCCCCCCCCCC(=O)O[C@@H]1[C@@H](C)[C@@]2(O)[C@@H](C=C(CO)C[C@]3(O)C(=O)C(C)=C[C@@H]23)[C@@H]2C(C)(C)[C@]12OC(C)=O [PMA, phorbol 12-myristate 13-acetate]
predicted time (factor-based classification) (1000 W cells; 30 min after PMA exposure): 648 days | predicted time (factor-based classification) (1000 W cells; 2 h after PMA exposure): 663 days | predicted time (factor-based classification) (1000 W cells; 5 h after PMA exposure): 668 days | predicted time (factor-based classification) (1000 W cells; 10 h after PMA exposure): 604 days | factor #1 value (1000 W cells; PMA time course): significantly elevated for a brief period after exposure | factor #2 value (1000 W cells; PMA, 10-h time point): significantly reduced below control | factor #7 value (knob-shaped projections on the cell edge) (1000 W cells; PMA, one experiment): adopted values like those of transformed cells | factor #16 value (size variability in projections at the cell edge) (1000 W cells; PMA, one experiment): adopted values like those of transformed cells | factor #4 value (1000 W cells; PMA, times between 0.5 and 5 h): indistinguishable from those of control samples | factor #12 value (1000 W cells; PMA, times between 0.5 and 5 h): indistinguishable from those of control samples

CC(=O)O[C@H]1C(=O)[C@@]2(C)[C@H]([C@H](OC(=O)c3ccccc3)[C@]3(O)C[C@H](O)C(C)=C1C3(C)C)[C@]1(OC(C)=O)CO[C@@H]1C[C@@H]2O [baccatin III, Baccatin III]
shift of signature-type (mean predicted time) versus control, in words (IAR20 PC1 cells [1]): failed to shift | MT organization / arrangement, in words (IAR20 PC1 cells [2]): little noticeable effect

C/C=C(\C)C(=O)N[C@@H](c1ccccc1)[C@@H](O)C(=O)O[C@H]1C[C@@]2(O)[C@@H](OC(=O)c3ccccc3)[C@@H]3[C@]4(OC(C)=O)CO[C@@H]4C[C@H](O)[C@@]3(C)C(=O)[C@H](OC(C)=O)C(=C1C)C2(C)C [cephalomannine]
shift of signature-type (mean predicted time) versus control, in words (IAR20 PC1 cells [1]): failed to shift | MT organization / arrangement, in words (IAR20 PC1 cells [2]): caused MTs to aggregate in the form of arc-shaped bundles | cells with MT bundles on both sides of the nucleus (IAR20 PC1 cells [2]): 71%

CCN(CC)CCCC(C)Nc1ccnc2cc(Cl)ccc12 (stereo not shown) [chloroquine]
factors used in classification whose values changed significantly (IAR20 PC1 cells [1]): did not significantly change any of the factors | mean predicted time (signature-type, factor-based classification) (IAR20 PC1 cells [1]): 315 days

COc1cc2c(c(OC)c1OC)-c1ccc(OC)c(=O)cc1[C@@H](NC(C)=O)CC2 [colchicine]
mean predicted time (signature-type, factor-based classification) (IAR20 PC1 cells [1]): 338 days | factor #4 value (filopodia / sharp projections at cell edge) (IAR20 PC1 cells [1]): decreased | factor #7 value (knob-like structures at the cell edge) (IAR20 PC1 cells [1]): increased | factor #12 value (slope at which cell rises from substratum, rounding-up) (IAR20 PC1 cells [1]): mimicked; also recorded: increased | mean predicted time (1000 W cells; 2 μM colchicine for 2 hrs, cells grown in 0.1 μg/ml insulin, untreated 655 days): 737 days | mean predicted time (1000 W cells; 2 μM colchicine for 2 hrs, cells grown in 1 μg/ml insulin, untreated 638 days): 687 days | mean predicted time (1000 W cells; 2 μM colchicine for 2 hrs, cells grown in 10 μg/ml insulin, untreated 637 days): 673 days | factor #1 value (massive extensions or invaginations in the two uppermost contours) (1000 W cells; colchicine exposure): increased | average solution of predicted time (1000 W cells; second experiment, colchicine-treated sample, control 636 days): 689 days | MT organization / arrangement, in words (IAR20 PC1 cells [2]): complete depolymerization of MTs

CC[C@@]1([C@@H]2O[C@@H]([C@H]3O[C@@](O)(CO)[C@H](C)C[C@@H]3C)C[C@@H]2C)CC[C@H]([C@]2(C)CC[C@]3(C[C@H](O)[C@@H](C)[C@@H]([C@@H](C)[C@@H](OC)[C@H](C)C(=O)O)O3)O2)O1 [monensin]
average predicted time (factor-based classification) (IAR20 PC1 cells [1]; 24 μM monensin alone or together with 50 μM ouabain, control 318 days): 344 days | factor #4 value (filopodia / sharp projections at cell edge) (IAR20 PC1 cells [1]): change in factor #4 | factor #8 value (sharp features in the second contour) (IAR20 PC1 cells [1]): affected | time after initial exposure by which horseradish peroxidase uptake was inhibited (IAR20 PC1 cells [3]): ≤ 30 min

CC(=O)O[C@H]1C(=O)[C@@]2(C)[C@H]([C@H](OC(=O)c3ccccc3)[C@]3(O)C[C@H](OC(=O)[C@H](O)[C@@H](NC(=O)c4ccccc4)c4ccccc4)C(C)=C1C3(C)C)[C@]1(OC(C)=O)CO[C@@H]1C[C@@H]2O [paclitaxel]
factors used in classification whose values changed significantly (IAR20 PC1 cells [1]): changes in factors #1, #7, and #12 | shift of signature-type (mean predicted time) versus control, in words (IAR20 PC1 cells [1]): failed to promote the signature-type | mean predicted time (signature-type, factor-based classification) (IAR20 PC1 cells [1]): 304 days | factors whose values changed (IAR20 PC1 cells [1]; paclitaxel at a high concentration over a 4-h period): changes in #1, #7, #8, and #13 | factor #12 value (slope at which cell rises from substratum, rounding-up) (IAR20 PC1 cells [1]): counteracted | number of the eight contour shape variables highly correlated with factor #4 that changed significantly (1000 W cells): six of their values differed significantly | number of the eight contour shape variables highly correlated with factor #4 that changed significantly (1000 W cells; listed as Paclitaxel): six out of the eight | change of signature-type versus control, in words (1000 W cells): failed to elicit any change | MT organization / arrangement, in words (IAR20 PC1 cells [2]): large bundles of MTs | cells with MT bundles on both sides of the nucleus (IAR20 PC1 cells [2]): 56%

CC(C)[C@@H]1NC(=O)[C@H](C)OC(=O)[C@@H](C(C)C)NC(=O)[C@@H](C(C)C)OC(=O)[C@H](C(C)C)NC(=O)[C@H](C)OC(=O)[C@@H](C(C)C)NC(=O)[C@@H](C(C)C)OC(=O)[C@H](C(C)C)NC(=O)[C@H](C)OC(=O)[C@@H](C(C)C)NC(=O)[C@@H](C(C)C)OC1=O [valinomycin]
mean predicted time (signature-type, factor-based classification) (IAR20 PC1 cells [1]): 336 days | factor #4 value (filopodia / sharp projections at cell edge) (IAR20 PC1 cells [1]): change in factor #4 | factor #8 value (sharp features in the second contour) (IAR20 PC1 cells [1]): affected

gramicidin D
mean predicted time (signature-type, factor-based classification) (IAR20 PC1 cells [1]): 387 days | factor #4 value (filopodia / sharp projections at cell edge) (IAR20 PC1 cells [1]): change in factor #4 | factor #7 value (knob-like structures at the cell edge) (IAR20 PC1 cells [1]): increase

insulin
mean predicted time (1000 W cells; grown in 0.1 μg/ml insulin, no colchicine): 655 days | mean predicted time (1000 W cells; grown in 1 μg/ml insulin, no colchicine): 638 days | mean predicted time (1000 W cells; grown in 10 μg/ml insulin, no colchicine): 637 days | change of signature-type versus control, in words (1000 W cells): no significant differences
